# Where two headings read alike, the source gives them in different places.
# Test system: GM3
# Assay: GM3 Elisa assay
# Type: cell-based
# Settings: B16-FO cells, read-out: IC50_uM_Mean
# Protocol: B16-FO cells from ATCC (American Tissue Culture Collection) were grown in DMEM media (ATCC) with 10% Fetal Bovine Serum (Hyclone) and Pen/Step/Glutamine (Biowhittaker). 4000 cells per well were plated on collagen coated plates (BD) and allowed to attach for 6 hours in an incubator (37 degrees, 5% CO2). After 6 hours the compounds and controls were added to the wells, the plates mixed and returned to the incubator for 2 days. Day of assay the cells were fixed for 20 minutes with 1% formaldehyde and then washed with Tris Buffered Saline (TBS) 3 times, 150 μl of TBS was left in the wells and 50 μl of goat serum (Invitrogen) was added, the plates mixed and incubated for 1 hour at room temperature. The plates were flicked and the cells incubated with the monoclonal Antibody to GM3 (NeuAc) (Cosmo) for 45 minutes as room temperature. The plates were then washed 3 times with TBS, leaving 150 μl of TBS in the wells and Peroxidase AffinPure F (ab′) 2 frag Gt Anti-mouse IgM, μ Chain Specific (Jackson Immuno Research) was added in 50 μl, the plates mixed and incubated for 45 minutes at room temperature. The plates were washed 3 times with TBS, flicked and blotted and 100 μl of Quantablu (Pierce) was added to the wells and incubated for 1 hour then read on a Fluorometer at Ex 325 and Em 420. The data was then analyzed using standard programs.
# [1] = 48 h, Table 1, 2 days incubation
# [2] = 48 h, Table 2, 2 days incubation
Compound,IC50 (Table 3 (IC 50 Values)) [nM],also measured
O=C(CCCCS(=O)(=O)C1CCCCC1)N[C@H](CN1CCCC1)[C@H](O)c1ccc2c(c1)OCCO2 [Compound 557],3000 to 10000,–
"COc1ccc(CNC(=O)N[C@H](CN2CCCC2)[C@H](O)c2ccc3c(c2)OCCO3)cc1 [Compound 41, 1-((1R,2R)-1-(2,3-dihydrobenzo[β][1,4]dioxin-6-yl)-1-hydroxy-3-(pyrrolidin-1-yl)propan-2-yl)-3-(4-methoxybenzyl)urea]",–,IC50 [1]: ≤ 100 nM
O=C(CCCCCCCCCCCc1cccnc1)N[C@H](CN1CCCC1)[C@H](O)c1ccc2c(c1)OCCO2 [Compound 305],–,IC50 [1]: ≤ 100 nM
COc1ccc(C(=O)CCCCC(=O)N(CC(=O)c2ccc(OC)cc2)[C@H](CN2CCCC2)[C@H](O)c2ccc(O)cc2)cc1 [Compound 424],3000 to 10000,–
O=C(CCCC(=O)c1ccc(F)cc1)N[C@H](CN1CCCC1)[C@H](O)c1ccc2c(c1)OCCO2 [Compound 639],100 to 1000,–
"CC(C)Oc1ccc(C(=O)CCCC(=O)N[C@H](CN2CCCC2)[C@H](O)c2ccc3c(c2)OCO3)cc1 [Compound 265, N-((1R,2R)-1-(benzo[ε][1,3]-dioxol-5-yl)-1-hydroxy-3-(pyrrolidin-1-yl)propan-2-yl)-5-(4-isopropoxyphenyl)-5-oxopentanamide (2S,3S)-2,3-dihydroxysuccinate]",–,IC50 [2]: ≤ 100 nM
COc1ccc(OCCC(=O)N[C@H](CN2CC[C@H](c3ccccc3)C2)[C@H](O)c2ccc3c(c2)OCCO3)cc1 [Compound 505],3000 to 10000,–
"COc1ccc([C@@H](O)[C@@H](CN2CCCC2)NC(=O)Cc2ccc(C(F)(F)F)cc2)cc1 [Compound 251, N-((1R,2R)-1-hydroxy-1-(4-methoxyphenyl)-3-(pyrrolidin-1-yl)propan-2-yl)-2-(4-(trifluoromethyl)phenyl)acetamide]",–,IC50 [2]: 100 to 1000 nM
COc1ccc(C(=O)CCCCCC(=O)N[C@H](CN2CCCCC2C)[C@H](O)c2ccc3c(c2)OCCO3)cc1 (some centres unmarked) [Compound 607],1000 to 3000,–
O=C(CCCCC1CCOCC1)N[C@H](CN1CCCC1)[C@H](O)c1ccc2c(c1)OCCO2 [Compound 581],100 to 1000,–
COCCc1ccc([C@@H](O)[C@@H](CN2CCCC2)NC(=O)CCCC(=O)c2ccc(OC)cc2)cc1 [Compound 355],1000 to 3000,–
COc1ccc(C(=O)CCCCCC(=O)N[C@H](CN2C3CCC2CC3)[C@H](O)c2ccc3c(c2)OCCO3)cc1 [Compound 522],≤ 100,–
CCCCCCOc1ccc([C@@H](O)[C@@H](CN2C3CCC2CC3)NC(=O)CCCCCC(=O)c2ccc(OC)cc2)cc1 [Compound 374],≤ 100,–
CCCCCCCCCCCCCC(=O)N[C@H](CN(C)C(C)C)[C@H](O)c1ccc2c(c1)OCCO2 [Compound 684],100 to 1000,–
COCCCCCCCC(=O)N[C@H](CN1CC[C@H](O)C1)[C@H](O)c1ccc(OCCCCF)cc1 [Compound 499],≤ 100,–
COc1ccc(C(=O)CCCCC(=O)N[C@H](CN2CCCC2)[C@H](O)c2ccc(OCCOc3c(C)cccc3C)cc2)cc1 [Compound 373],≤ 100,–
"COc1ccc(OCCC(=O)N[C@H](CN2CCCCC2)[C@H](O)c2ccc3c(c2)OCCO3)cc1 [Compound 261, N-((1R,2R)-1-(2,3-dihydrobenzo[β][1,4]dioxin-6-yl)-1-hydroxy-3-(piperidin-1-yl)propan-2-yl)-3-(4-methoxyphenoxy)propanamide]",–,IC50 [2]: 100 to 1000 nM
Cc1ccc(OCCC(=O)N[C@H](CN2CCCC2)[C@H](OC(=O)CCOc2ccc(C)cc2)c2ccc3c(c2)OCCO3)cc1 [Compound 252],–,IC50 [2]: 100 to 1000 nM
COc1ccc(C(=O)CCCCCC(=O)N[C@H](CN2CCC(F)CC2)[C@H](O)c2ccc3c(c2)OCCO3)cc1 [Compound 626],100 to 1000,–
O=C(CCCOc1ccc(F)cc1)N[C@H](CN1CC[C@H](O)C1)[C@H](O)c1ccc2c(c1)OCCO2 [Compound 656],≤ 100,–
COc1ccc(C(=O)CCCCCC(=O)N[C@@H](CO)C(O)c2ccc3c(c2)OCCO3)cc1 (some centres unmarked) [Compound 477],3000 to 10000,–
"O=C(Cc1ccc(OC(F)(F)F)cc1)N[C@H](CN1CCCC1)[C@H](O)c1ccc2c(c1)OCCO2 [Compound 103, N-((1R,2R)-1-(2,3-dihydrobenzo[β][1,4]dioxin-6-yl)-1-hydroxy-3-(pyrrolidin-1-yl)propan-2-yl)-2-(4-(trifluoromethoxy)phenyl)acetamide]",–,IC50 [1]: ≤ 100 nM
CCCCCCOc1ccc([C@@H](O)[C@@H](CN2CCCC2)NC(=O)CCCCC(=O)c2ccc(OCCOC)cc2)cc1 [Compound 443],≤ 100,–
O=C(CCCCCC1CCOCC1)N[C@H](CN1CCCC1)[C@H](O)c1ccc2c(c1)OCCO2 [Compound 559],100 to 1000,–
COc1ccc(C(=O)CCCCCC(=O)N[C@H](CN2CC[C@@H](F)C2)[C@H](O)c2ccc3c(c2)OCCO3)cc1 [Compound 531],≤ 100,–

Compound,IC50 (Table 3 (IC 50 Values)) [nM],also measured
O=C(CCCCC(=O)C1CCOCC1)N[C@H](CN1CC[C@@H](F)C1)[C@H](O)c1ccc(OCc2ccccc2)cc1 [Compound 576],100 to 1000,–
"O=C(CCSc1ccccc1)N[C@H](CN1CCCC1)[C@H](O)c1ccc2c(c1)OCCO2 [Compound 32, N-((1R,2R)-1-(2,3-dihydrobenzo[β][1,4]dioxin-6-yl)-1-hydroxy-3-(pyrrolidin-1-yl)propan-2-yl)-3-(phenylthio)propanamide]",–,IC50 [1]: ≤ 100 nM
CCCCCCCC(=O)N[C@H](Cn1ccnc1)[C@H](O)c1ccc2c(c1)OCCO2 [Compound 507],100 to 1000,–
COc1ccc(OCCC(=O)N[C@H](Cn2ccnc2)[C@H](O)c2ccc3c(c2)OCCO3)cc1 [Compound 508],3000 to 10000,–
COc1ccc(OCCC(=O)N[C@H](CN2CCCC2)[C@H](O)c2ccc(OCCOc3cccc(C)c3)cc2)cc1 [Compound 722],≤ 100,–
COc1ccc(OCCC(=O)N[C@H](CN2CCCC2)[C@H](O)c2ccc(-c3ccccc3)cc2)cc1 [Compound 695],100 to 1000,–
"Cc1ccc(CNC(=O)N[C@H](CN2CCCC2)[C@H](O)c2ccc3c(c2)OCCO3)cc1 [Compound 42, 1-((1R,2R)-1-(2,3-dihydrobenzo[β][1,4]dioxin-6-yl)-1-hydroxy-3-(pyrrolidin-1-yl)propan-2-yl)-3-(4-methylbenzyl)urea]",–,IC50 [1]: ≤ 100 nM
COc1ccc(OCCC(=O)N[C@H](CN2CC(O)C2)[C@H](O)c2ccc3c(c2)OCCO3)cc1 [Compound 601],3000 to 10000,–
N#CCCCCCC(=O)N[C@H](CN1CCCC1)[C@H](O)c1ccc2c(c1)OCCO2 [Compound 632],3000 to 10000,–
O=C(N[C@H](CN1CCCC1)[C@H](O)c1ccc2c(c1)OC(F)(F)C(F)(F)O2)OCc1ccccc1 [Compound 399],1000 to 3000,–
CCCCCCCC(=O)N[C@H](CN1CCC[C@@H]1C(F)(F)F)[C@H](O)c1ccc2c(c1)OCCO2 [Compound 546],3000 to 10000,–
CCCCCCCC(=O)N[C@H](CN1CCCC1)[C@@H](O)c1ccc2c(c1)OCCO2 [Compound 673],3000 to 10000,–
COc1ccc(C(=O)CCCCCC(=O)N[C@H](CNC2CCCCC2)[C@H](O)c2ccc3c(c2)OCCO3)cc1 [Compound 458],3000 to 10000,–
CCCCCCCC(=O)N[C@H](CN1CCC[C@H]1COC)[C@@H](O)c1ccc2c(c1)OCCO2 [Compound 534],3000 to 10000,–
COc1ccc(C(=O)CCCC(=O)N[C@H](CN2CCCC2)[C@H](O)c2ccc(C)c(F)c2)cc1 [Compound 346],100 to 1000,–
COc1cc([C@@H](O)[C@@H](CN2CCCC2)NC(=O)CCCCCC(C)=O)cc(OC)c1OC [Compound 671],3000 to 10000,–
COc1ccc([C@@H](O)[C@@H](CN2CCCC2)NC(=O)Nc2ccc(OC(F)(F)F)cc2)cc1 [Compound 249],–,IC50 [2]: 1000 to 3000 nM
"O=C(CCCc1nc2ccccc2s1)NC(CN1CCCC1)[C@H](O)c1ccc2c(c1)OCCO2 (stereo partly drawn) [Compound 101, 4-(benzo[d]thiazol-2-yl)-N-((1R,2R)-1-(2,3-dihydrobenzo[β][1,4]dioxin-6-yl)-1-hydroxy-3-(pyrrolidin-1-yl)propan-2-yl)butanamide]",–,IC50 [1]: ≤ 100 nM
COc1ccc(OCCC(=O)N[C@@H](CN2CCCC2)[C@H](O)c2ccc3c(c2)OCCO3)cc1 [Compound 675],3000 to 10000,–
CCCCCCCCCCCCCCCC(=O)N[C@H](CNCc1ccco1)[C@H](O)c1ccc2c(c1)OCCO2 [Compound 679],3000 to 10000,–
COc1ccc(C(=O)CCCC(=O)N[C@H](CN2CC[C@@H](F)C2)[C@H](O)c2ccc(OCCCCF)cc2)cc1 [Compound 736],≤ 100,–
COc1ccc(OCCC(=O)N[C@H](CN2CCC(C)(C)C2)[C@H](O)c2ccc3c(c2)OCCO3)cc1 [Compound 519],3000 to 10000,–
CCCCCCCC(=O)N[C@H](CN1CCC[C@@H]1C)[C@@H](O)c1ccc2c(c1)OCCO2 [Compound 527],1000 to 3000,–
"CC(C)Oc1ccc(C(=O)CCCCC(=O)N[C@H](CN2CCCC2)[C@H](O)c2ccc3c(c2)OCCO3)cc1 [Compound 181, N-((1R,2R)-1-(2,3-dihydrobenzo[b][1,4]dioxin-6-yl)-1-hydroxy-3-(pyrrolidin-1-yl)propan-2-yl)-6-(4-isopropoxyphenyl)-6-oxohexanamide]",–,IC50 [1]: ≤ 100 nM
"O=C(CCOc1ccc(Cl)cc1)N[C@H](CN1CCCC1)[C@H](O)c1ccc2c(c1)OCCO2 [Compound 57, 3-(4-chlorophenoxy)-N-((1R,2R)-1-(2,3-dihydrobenzo[β][1,4]dioxin-6-yl)-1-hydroxy-3-(pyrrolidin-1-yl)propan-2-yl)propanamide]",–,IC50 [1]: ≤ 100 nM

# — patent US8304447B2, “2-acylaminopropoanol-type glucosylceramide synthase inhibitors” (Genzyme Corporation, priority 2007, dated 2012)
